B1: rASM: recombinant acid sphingomyelinase (protein, UniProt P17405 47-631, looked up)
Sphingomyelin …: LALSDSRVLWAPAEAHPLSPQGHPARLHRIVPRLRDVFGWGNLTCPICKGLFTAINLGLKKEPNVARVGSVAIKLCNLLKIAPPAVCQSIVHLFEDDMVEVWRRSVLSPSEACGLLLGSTCGHWDIFSSWNISLPTVPKPPPKPPSPPAPGAPVSRILFLTDLHWDHDYLEGTDPDCADPLCCRRGSGLPPASRPGAGYWGEYSKCDLPLRTLESLLSGLGPAGPFDMVYWTGDIPAHDVWHQTRQDQLRALTTVTALVRKFLGPVPVYPAVGNHESTPVNSFPPPFIEGNHSSRWLYEAMAKAWEPWLPAEALRTLRIGGFYALSPYPGLRLISLNMNFCSRENFWLLINSTDPAGQLQWLVGELQAAEDRGDKVHIIGHIPPGHCLKSWSWNYYRIVARYENTLAAQFFGHTHVDEFEVFYDEETLSRPLAVAFLAPSATTYIGLNPGYRVYQIDGNYSGSSHVVLDHETYILNLTQANIPGAIPHWQLLYRARETYGLPNTLPTAWHNLVYRMRGDMQLFQTFWFLYHKGHPPSEPCGTPCRLATLCAQLSARADSPALCRHLMPDGSLPEAQSLWPRPLFC

Experiments:
U-2-OS cells = assay: Lysosomal integrity upon photo-oxidation (acridine orange and blue light); assay type: cell-based, Human; conditions: recombinant proteins 300 nM, 24 h
Description: FIG. 2: Lysosomal Hsp70 stabilizes lysosomal membranes. (a) Representative confocal images of U-2-OS cells incubated with 300 nM rHsp70-AF488 (green) for 24 h, fixed and stained for lysosomal integral membrane protein-1 (LIMP-1; red). For co-localization with other organelle markers see FIG. 3. (b) U-2-OS cells were incubated with 300 nM rHsp70-AF488 for 24 h before quantification of rHsp70-AF488 in membranes (memb.) and supernatant (sup.) obtained by repeated freeze/thaw cycles and centrifugation the light membrane fraction (LMF). […] (c) Representative still images of U-2-OS cells exposed to photo-oxidation (acridine orange and blue light). The loss of lysosomal integrity is visualized by the loss of red and increase in green staining. (d and e) U-2-OS cells were incubated with indicated recombinant proteins (300 nM) for 24 h, and analyzed for lysosomal integrity upon photo-oxidation. When indicated, cells were treated with indicated siRNAs for 48 h prior to the addition of recombinant proteins (e). The values represent means±SD (standard deviation) for three (d) or five (e) independent experiments. Representative immunoblots of indicated proteins from U-2-OS cells left untreated or treated with control or Hsp70 siRNAs are shown on the right. Scale bars: 20 μm (a and c).
WT- and Hsp70-MEFs were generated, immortalized and maintained as described in the art. Human NPDA fibroblasts (83/24) originate from a skin biopsy of a patient with hepatosplenomegaly. Recombinant proteins were generated using the pET-16b vector system and Ni^2+-affinity-purification (Novagen), and labeled with Alexa Fluor 488 according to manufacturers protocol (Molecular Probes). To analyze the lysosomal integrity, we developed a real time imaging method of cells stained with acridine orange, a metachromatic weak base that accumulates in the acidic compartment of the cells staining them red and sensitizing them to photo-oxidation. The photo-oxidation-induced loss of the lysosomal pH-gradient and leakage of acridine orange to the cytosol from individual lysosomes was quantified visually as “loss of red dots” in U2-O—S cells and as a decrease in red and an increase in green fluorescence by Zeiss LSM DUO Software in fibroblasts. The total and cytoplasmic (digitonin-extracted) cathepsin activities were measured in digitonin-treated samples using zFR-AFC (Enzyme System Products) probe as described in the art. The tryptophan fluorescence spectra and liposome 90° light scattering were analyzed in a HEPES buffer (20 mM HEPES, 0.1 mM EDTA, pH as indicated) essentially as described in the art. Surface plasmon resonance measurements were performed with immobilized LUVs using a BIAcore 2000 system as described in the art. Hsp70 siRNA (5′-[…]-3′) and a […] were transfected with Oligofectamine (Invitrogen). Immunodetection was performed with standard protocols. Apoptosis-like cell death and lysosomal membrane permeabilization were analyzed essentially as described in the art. ASM activity was analyzed by Amplex Red Sphingomyelinase Assay Kit (A12220) from Molecular Probes with modifications described in the art. Statistical analysis was performed using a two-tailed, paired Student's T-test and all groups of data were tested for the comparability of their variances using an F-test.
Sub-confluent cells incubated with 2 μg/ml acridine orange for 15 min at 37° C. were washed, irradiated and analyzed in Hanks balanced salt solution complemented with 3% fetal calf serum. Cells for single cell imaging were selected from 8 pre-defined areas of each well in transmitted light-mode after which the same cells were immediately visualized and exposed to blue light from USH102 100W mercury arc burner (Ushio electric) installed in a U-ULS100HG housing (Olympus) for 20 sec. Fluorescence microscopy was performed on Olympus IX-70 inverted microscope with a LCPlanF1 ×20 objective with NA=0.40. […]

[1] = tested on: cisplatin-induced lysosomal cell death; assay: Cisplatin-induced lysosomal cell death; assay type: cell-based
Excerpt: Thus, we investigated the interaction of Hsp70 with palmitoyl-oleoyl-phosphatidylcholine (POPC) large unilamellar vesicles (LUVs) containing various membrane-associated anionic lipids, i.e. palmitoyl-oleoyl-phosphatidylserine (POPS; primarily in plasma membrane), cardiolipin (primarily mitochondrial) and BMP (primarily in late endosomes/lysosomes). Taking into account the increasingly acidic milieu of the endo-lysosomal compartment upon maturation to lysosomes, we compared the protein-lipid interactions in neutral (pH 7.4) and acidic (pH 6.0) conditions. […]
(§1) In order to investigate which part of the Hsp70 protein is responsible for the BMP binding, we measured the fluorescence shift of the tryptophans upon docking of rHsp70 and its mutants into BMP-containing liposomes. […] Next, we substituted the two tryptophans in Hsp70 with phenylalanines (W90F and W580F) and studied which tryptophan is responsible for the fluorescence shift induced by lipid binding. […] A more quantitative BIAcore analysis of the BMP—rHsp70 interaction confirmed that Hsp70 interacted with BMP mainly through its ATPase domain. […]
Cell density was assessed by the 3-(4,5-dimethylthiazole-2-y)-2,5-[…] (MTT, SIGMA-Aldrich) reduction assay essentially as described in the art. […] For each experiment a minimum of eight randomly chosen areas were counted.

[2] = Surface plasmon resonance (BIAcore) BMP interaction; assay type: binding; conditions: acidic pH
Excerpt: Thus, we investigated the interaction of Hsp70 with palmitoyl-oleoyl-phosphatidylcholine (POPC) large unilamellar vesicles (LUVs) containing various membrane-associated anionic lipids, i.e. palmitoyl-oleoyl-phosphatidylserine (POPS; primarily in plasma membrane), cardiolipin (primarily mitochondrial) and BMP (primarily in late endosomes/lysosomes). Taking into account the increasingly acidic milieu of the endo-lysosomal compartment upon maturation to lysosomes, we compared the protein-lipid interactions in neutral (pH 7.4) and acidic (pH 6.0) conditions. […] As reported earlier for POPS, all negatively charged lipids enhanced the binding of rHsp70 to the liposomes at neutral pH approximately 4-fold irrespective of the charge density on the liposome surface (ranging from −1 to −2).
as §1

[3] = Tryptophan fluorescence shift upon docking into BMP-containing liposomes; assay type: binding
Excerpt: In order to investigate which part of the Hsp70 protein is responsible for the BMP binding, we measured the fluorescence shift of the tryptophans upon docking of rHsp70 and its mutants into BMP-containing liposomes. […] Next, we substituted the two tryptophans in Hsp70 with phenylalanines (W90F and W580F) and studied which tryptophan is responsible for the fluorescence shift induced by lipid binding. […] A more quantitative BIAcore analysis of the BMP—rHsp70 interaction confirmed that Hsp70 interacted with BMP mainly through its ATPase domain. […] Thus, the rHsp70-W90F mutant provided us with an invaluable tool to further test whether the direct interaction between Hsp70 and BMP endows Hsp70 with its lysosome protective attributes. […] Importantly, mutant Hsp70 proteins were endocytosed essentially as effectively as the wild type Hsp70.
The tryptophan fluorescence spectra (RFI) and liposome 90° light scattering (RSI) were analyzed in a HEPES buffer (20 mM HEPES, 0.1 mM EDTA, pH 7.4 or 6.0 as indicated) employing LUVs consisting of indicated lipids essentially as described in the art. For the RFI, LUVs were added in 10 μM aliquots and spectra recorded after a 20 min stabilization period. For the RSI, recombinant proteins were added in 0.12 nmol aliquots.

Hsp70 chaperone = target: T1, Hsp70 chaperone (Homo sapiens, UniProt P0DMV8, W90F); assay: Structural and functional aspects of the Hsp70 chaperone (circular dichroism, luciferase folding, ATP hydrolysis); assay type: biochemical; conditions: far- and near-UV circular dichroism
T1 construct: made in house

ASM = ASM activity in NPDA patient cells; assay type: cell-based, Human; conditions: loading the lysosomes of patient cells
Excerpt: (§2) BMP binds ASM with high affinity and stimulates its ability to hydrolyze sphingomyelin to ceramide and phosphorylcholine. […] In order to test whether ASM is responsible for the lysosome stabilizing effect we treated the cells with desipramine, a well characterized pharmacological ASM inhibitor. […] It should be noted that akin to rHsp70, also rASM localized to the lysosomes.
WT- and Hsp70-MEFs were generated, immortalized and maintained as described in the art. Human NPDA fibroblasts (83/24) originate from a skin biopsy of a patient with hepatosplenomegaly. […] The photo-oxidation-induced loss of the lysosomal pH-gradient and leakage of acridine orange to the cytosol from individual lysosomes was quantified visually as “loss of red dots” in U2-O—S cells and as a decrease in red and an increase in green fluorescence by Zeiss LSM DUO Software in fibroblasts. The total and cytoplasmic (digitonin-extracted) cathepsin activities were measured in digitonin-treated samples using zFR-AFC (Enzyme System Products) probe as described in the art. The tryptophan fluorescence spectra and liposome 90° light scattering were analyzed in a HEPES buffer (20 mM HEPES, 0.1 mM EDTA, pH as indicated) essentially as described in the art. […] Apoptosis-like cell death and lysosomal membrane permeabilization were analyzed essentially as described in the art. […]

NPDA cells [4] = assay: Lysosomal stability in NPDA cells; assay type: cell-based, Human
Description: as §2
Sub-confluent cells incubated with 2 μg/ml acridine orange for 15 min at 37° C. were washed, irradiated and analyzed in Hanks balanced salt solution complemented with 3% fetal calf serum. Cells for single cell imaging were selected from 8 pre-defined areas of each well in transmitted light-mode after which the same cells were immediately visualized and exposed to blue light from USH102 100W mercury arc burner (Ushio electric) installed in a U-ULS100HG housing (Olympus) for 20 sec. Fluorescence microscopy was performed on Olympus IX-70 inverted microscope with a LCPlanF1 ×20 objective with NA=0.40. Loss of lysosomal pH gradient was quantified by counting the loss of intense red staining. A more elaborate method for assaying lysosomal integrity was developed to handle the larger lysosomal compartment of the various fibroblasts used in this study. […] The resulting timelapse movies where subsequently analysed by the integrated Zeiss LSM DUO software.

NPDA cells [5] = assay: Volume of the lysosomal compartment in NPDA cells; assay type: cell-based, Human
Excerpt: as §2
Primary antibodies used included mouse monoclonal antibodies against Hsp70 (2H9; kindly provided by Boris Margulis, Russian Academy of Sciences, St. Petersburg, Russia), glyceraldehyde-3-phosphate dehydrogenase (GAPDH; Biogenesis), BMP (6C4), lysosomal integral membrane protein-1 (H5C6; developed by J. Thomas August and James E. K. Hildreth and obtained from the Developmental Studies Hybridoma Bank developed under the auspices of the NICHD and maintained by The University of Iowa, Department of Biological Sciences, Iowa City, USA). Proteins separated by 10% SDS-PAGE and transferred to a nitrocellulose membrane were detected by using indicated primary antibodies, appropriate peroxidase-conjugated secondary antibodies from Dako, ECL Western blotting reagents (Amersham), and Luminescent Image Reader (LAS-1000Plus, Fujifilm). For immunocytochemistry Alexa […] or Alexa Fluor®-488-conjugated secondary antibodies were used. […] Fluorescence images were taken using a Zeiss Axiovert 100M laser scanning microscope. […]

T1 sequence (P0DMV8 whole entry W90F): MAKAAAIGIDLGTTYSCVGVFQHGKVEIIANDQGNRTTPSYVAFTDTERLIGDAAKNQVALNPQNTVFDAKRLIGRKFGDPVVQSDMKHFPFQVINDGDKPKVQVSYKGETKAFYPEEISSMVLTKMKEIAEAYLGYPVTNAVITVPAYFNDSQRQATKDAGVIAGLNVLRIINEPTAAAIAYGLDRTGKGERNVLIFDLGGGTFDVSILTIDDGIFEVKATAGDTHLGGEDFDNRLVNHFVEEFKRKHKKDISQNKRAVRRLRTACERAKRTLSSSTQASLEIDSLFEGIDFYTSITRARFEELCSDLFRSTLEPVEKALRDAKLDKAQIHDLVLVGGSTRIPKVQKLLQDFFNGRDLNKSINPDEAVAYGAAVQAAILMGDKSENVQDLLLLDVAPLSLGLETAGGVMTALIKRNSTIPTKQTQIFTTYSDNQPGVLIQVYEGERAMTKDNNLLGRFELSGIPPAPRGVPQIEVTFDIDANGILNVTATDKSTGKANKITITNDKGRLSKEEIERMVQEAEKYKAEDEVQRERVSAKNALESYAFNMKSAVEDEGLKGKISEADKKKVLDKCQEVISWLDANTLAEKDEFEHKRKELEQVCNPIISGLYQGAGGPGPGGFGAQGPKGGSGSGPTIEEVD

Molecule | protection of lysosomes against photo-oxidation (lysosomal stabilization) (U-2-OS cells) | protection of cells against cisplatin-induced lysosomal cell death [1] | other results
rHsp70-W580F: rHsp70 mutant with tryptophan 580 substituted with phenylalanine | same protective effect as the wild-type protein | same protective effect as the wild-type protein | 
Hsc70: recombinant Hsc70, 86% identical to the amino acid sequence of Hsp70 | no lysosomal stabilization |  | 
rHsp70-W90F: rHsp70 mutant with tryptophan 90 substituted with phenylalanine | completely lost its ability to protect | completely lost its ability to protect | interaction with BMP (BIAcore) [2]: specifically abolished the interaction between rHsp70 and BMP; relative peak fluorescence intensity (tryptophan fluorescence shift) [3]: reduction of the signal; structural and functional aspects of the chaperone (Hsp70 chaperone): retaining the structural (folding as analyzed by far- and near-UV circular dichroism) and functional (luciferase folding and ATP hydrolysis) aspects
Hsp70-2: recombinant Hsp70-2, 84% identical to the amino acid sequence of Hsp70 | no lysosomal stabilization |  | 
B1 |  |  | ASM activity in NPDA patient cells (ASM): increased ASM activity; stabilization of lysosomes in NPDA cells (NPDA cells [4]): stabilize the lysosomes; volume of the enlarged lysosomal compartment in NPDA cells (NPDA cells [5]): normalize the volume
